Our source for the Ki values is patent US8741931B2, “Kinase inhibitors” (priority 2007, dated 2014).

pKi: −log10 of the molar value.

The target in the first test is PKC delta kinase (Homo sapiens, UniProt Q05655). Kind of test: PKC Delta (coupled enzyme assay). The class given is biochemical.
Chain of PKC delta kinase (Q05655 whole entry): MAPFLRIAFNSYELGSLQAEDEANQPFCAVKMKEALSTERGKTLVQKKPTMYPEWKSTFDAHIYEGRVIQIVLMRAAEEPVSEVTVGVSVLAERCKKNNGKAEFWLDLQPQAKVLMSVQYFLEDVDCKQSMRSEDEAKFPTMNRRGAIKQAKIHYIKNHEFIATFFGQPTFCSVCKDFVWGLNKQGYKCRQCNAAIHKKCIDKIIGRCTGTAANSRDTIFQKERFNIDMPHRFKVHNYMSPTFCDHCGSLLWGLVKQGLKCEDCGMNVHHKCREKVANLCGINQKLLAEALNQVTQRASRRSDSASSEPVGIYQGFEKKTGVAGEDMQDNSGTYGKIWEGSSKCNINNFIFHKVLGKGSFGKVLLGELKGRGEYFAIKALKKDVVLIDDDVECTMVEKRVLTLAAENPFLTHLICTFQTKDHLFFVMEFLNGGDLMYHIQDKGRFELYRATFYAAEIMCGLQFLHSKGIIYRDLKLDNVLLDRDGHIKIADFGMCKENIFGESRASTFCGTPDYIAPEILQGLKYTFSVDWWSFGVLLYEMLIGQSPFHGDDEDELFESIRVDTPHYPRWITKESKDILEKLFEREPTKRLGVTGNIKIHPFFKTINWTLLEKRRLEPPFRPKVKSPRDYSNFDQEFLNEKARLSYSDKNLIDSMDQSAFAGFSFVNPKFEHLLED
Settings: not given
As to the method:
An assay buffer solution was prepared which consisted of 100 mM HEPES (pH 7.5), 10 mM MgCl2, 25 mM NaCl, 0.1 mM EDTA and 0.01% Brij. […] To 16 μL of this enzyme buffer, in a 384 well plate, was added 1 μL of VRT stock solution in DMSO. The mixture was allowed to equilibrate for 10 mins at 30° C. […] Ki values were calculated from initial rate data by non-linear regression using the Prism software package (Prism 4.0a, Graphpad Software, San Diego, Calif.).
With `CN1CCCN(c2cccc(C(=O)c3cccnc3N)n2)CC1` [compound 82], the pKi is 5.55 to 6.30.

The same test, now with this note: 150 μM ATP, 46 nM PKC delta; read-out: Ki PKC delta.
As for `Nc1ncccc1C(=O)c1cccc(N2CCCN(CC3CC3)CC2)n1` [compound 117], the pKi is 6.30 to 7.30. Consider `Cc1ccsc1C(=O)N1CCCN(c2cccc(C(=O)c3cccnc3N)n2)CC1` [compound 27], for which the pKi was 5.55 to 6.30. Still for that read-out and setting: the value for `Nc1ncccc1C(=O)c1nc(N2CCNC(CC3CC3)C2)ccc1C(F)(F)F` (stereo not drawn) [compound 441] was 6.30 to 7.30; that for `Nc1ncccc1C(=O)c1nc(OCC(N)C2CCOCC2)ccc1C(F)(F)F` (stereo not drawn) [compound 433] was below 5.55. On the same count and under the same terms, the figure for `CCC(=O)N1CCCN(c2cccc(C(=O)c3cccnc3N)n2)CC1` [compound 20] is 5.55 to 6.30.

For the compound `Nc1ncc(Br)cc1C(=O)c1nc(N2CCC(N)CC2)cs1` [compound 134], the pKi was 6.30 to 7.30.

In the case of `CC(C)CC(C)(N)CNc1ccc(C(F)(F)F)c(C(=O)c2cccnc2N)n1` (stereo not drawn) [compound 443], the pKi is 6.30 to 7.30. Same read-out and setting: the figure for `Cc1cnc(N)c(C(=O)c2nc(N3CCN[C@@H](CC(C)C)C3)ccc2C(F)(F)F)c1` [compound 499] is 6.30 to 7.30; for `Cc1sc(N2CCN[C@@H](CC(C)C)C2)nc1C(=O)c1cccnc1N` [compound 505] it is 6.30 to 7.30; for `CC(N)(CNc1ccc(C(F)(F)F)c(C(=O)c2cccnc2N)n1)Cc1ccccc1` (stereo not drawn) [compound 452] it is 6.30 to 7.30.

As for `CC(C)C[C@H]1CN(c2ccc(C(F)(F)F)c(C(=O)c3cccnc3N)n2)C[C@H](C)N1` [compound 483], the pKi is 5.55 to 6.30. Same read-out and setting: the value for `C=Cc1cnc(N)c(C(=O)c2nc(N3CCN[C@@H](CC(C)C)C3)ccc2C(F)(F)F)c1` [compound 487] was 6.30 to 7.30; that for `CC[C@@](CN)(CNc1ccc(C(F)(F)F)c(C(=O)c2cccnc2N)n1)c1ccccc1` [compound 462] was 6.30 to 7.30. Same read-out and setting: the figure for `CC1CCCCC1C(=O)N1CCCN(c2cccc(C(=O)c3cccnc3N)n2)CC1` (stereo not drawn) [compound 93] is below 5.55; for `CC(C)(C)CCN1CCCN(c2cccc(C(=O)c3cc(Br)cnc3N)n2)CC1` [compound 76] it is 5.55 to 6.30; for `Nc1ncc(Br)cc1C(=O)c1cccc(N2CCCN(CC3CC3)CC2)n1` [compound 113] it is 6.30 to 7.30. The same measure, in the same setting: the value for `Nc1ncccc1C(=O)c1nc(OCCC(N)c2ccccc2)ccc1C(F)(F)F` (stereo not drawn) [compound 427] was 6.30 to 7.30; that for `CCc1cnc(N)c(C(=O)c2nc(N3CCN[C@@H](CC(C)C)C3)ccc2C(F)(F)F)c1` [compound 486] was 6.30 to 7.30. Take `Cc1ccsc1CN1CCCN(c2cccc(C(=O)c3cccnc3N)n2)CC1` [compound 106]: the pKi was 5.55 to 6.30. Same read-out and setting: the figure for `Nc1ncc(Cl)cc1C(=O)c1nc(N2CCNCC2)ccc1C(F)(F)F` [compound 495] is 6.30 to 7.30; for `Cc1ccccc1C(=O)N1CCCN(c2cccc(C(=O)c3cccnc3N)n2)CC1` [compound 89] it is below 5.55; for `CC(C)(C)CN1CCCN(c2cccc(C(=O)c3cccnc3N)n2)CC1` [compound 126] it is 5.55 to 6.30.

For the compound `CC(C)C[C@H]1CN(c2ccc(C(F)(F)F)c(C(=O)c3cc(Br)cnc3N)n2)CCN1` [compound 479], the pKi was 6.30 to 7.30. On the same count and under the same terms, the value for `Nc1ncccc1C(=O)c1cccc(N2CCCN(C(=O)CC(F)(F)F)CC2)n1` [compound 23] was 6.30 to 7.30; that for `Nc1ncccc1C(=O)c1nc(N2CCN[C@@H](c3ccccc3)C2)ccc1C(F)(F)F` [compound 448] was 6.30 to 7.30; that for `CC(C)(O)CC1CN(c2ccc(C(F)(F)F)c(C(=O)c3cccnc3N)n2)CCN1` (stereo not drawn) [compound 459] was 6.30 to 7.30.

On to `Nc1ncccc1C(=O)c1cccc(N2CCCN(CCc3ccccc3)CC2)n1` [compound 120], for which the pKi is 5.55 to 6.30.

As to `COCC1CN(c2ccc(C(F)(F)F)c(C(=O)c3cccnc3N)n2)CCN1` (stereo not drawn) [compound 455], the pKi was 5.55 to 6.30. The same measure, in the same setting: the value for `C=C(F)c1ccc(N2CCN[C@H](c3ccccc3)C2)nc1C(=O)c1cccnc1N` [compound 474] was 6.30 to 7.30. Consider `CCc1cnc(N)c(C(=O)c2cccc(N3CCCNCC3)n2)c1` [compound 105], for which the pKi was 6.30 to 7.30. In the case of `Cn1cc(-c2cccc(C(=O)c3cccnc3N)n2)cn1` [compound 292], the pKi was below 5.55.

Turning to `CC(C)[C@H]1CN(c2ccc(C(F)(F)F)c(C(=O)c3cccnc3N)n2)C[C@H](c2ccccc2)N1` [compound 450], the pKi is 6.30 to 7.30. Same read-out and setting: the value for `C[C@@H]1CNCCN1c1ccc(C(F)(F)F)c(C(=O)c2cccnc2N)n1` [compound 484] was 6.30 to 7.30; that for `CC(C)C(=O)N1CCCN(c2cccc(C(=O)c3cc(Br)cnc3N)n2)CC1` [compound 71] was 5.55 to 6.30; that for `Nc1ncccc1C(=O)c1nc(N2CCNC(C3CC3)C2)ccc1C(F)(F)F` (stereo not drawn) [compound 442] was 6.30 to 7.30.

For `Nc1ncc(C(F)(F)F)cc1C(=O)c1cccc(N2CCCNCC2)n1` [compound 140], the pKi was 6.30 to 7.30. Same read-out and setting: the figure for `CCC(N)(COc1ccc(C(F)(F)F)c(C(=O)c2cccnc2N)n1)c1ccccc1` (stereo not drawn) [compound 440] is 6.30 to 7.30; for `CC(C)C[C@H]1CN(c2ccc(C(F)(F)F)c(C(=O)c3cccnc3N)n2)CC2(CCC2)N1` [compound 471] it is 6.30 to 7.30. Take `Nc1ncc(Br)cc1C(=O)c1cccc(N2CCCN(C(=O)Cc3cccc(O)c3)CC2)n1` [compound 70]: the pKi is 5.55 to 6.30.

As for `CCN1CCCN(c2cccc(C(=O)c3cc(Br)cnc3N)n2)CC1` [compound 115], the pKi was 6.30 to 7.30. With `COCC#Cc1cnc(N)c(C(=O)c2cccc(N3CCCNCC3)n2)c1` [compound 138], the pKi is 6.30 to 7.30. On the same count and under the same terms, the value for `Nc1ncccc1C(=O)c1nc(N2CC3CCC(C2)N3)ccc1C(F)(F)F` [compound 466] was 6.30 to 7.30. On the same count and under the same terms, the figure for `C[C@H]1CN(c2ccc(C(F)(F)F)c(C(=O)c3cccnc3N)n2)CCN1` [compound 478] is 6.30 to 7.30; for `CCC(N)(CNc1ccc(C(F)(F)F)c(C(=O)c2cccnc2N)n1)c1ccccc1` (stereo not drawn) [compound 444] it is 6.30 to 7.30. On the same count and under the same terms, the figure for `CC(C)C[C@H]1CN(c2ccc(C(F)(F)F)c(C(=O)c3cc(Cl)cnc3N)n2)CCN1` [compound 480] is 6.30 to 7.30; for `CC(C)N1CCCN(c2cccc(C(=O)c3cccnc3N)n2)CC1` [compound 116] it is 6.30 to 7.30; for `Nc1ncc(Cl)cc1C(=O)c1nc(N2CCNC(c3ccccc3)C2)ccc1C(F)(F)F` (stereo not drawn) [compound 496] it is 6.30 to 7.30. In the case of `CCCC1CN(c2ccc(C(F)(F)F)c(C(=O)c3cccnc3N)n2)CCN1` (stereo not drawn) [compound 434], the pKi was 6.30 to 7.30. Same read-out and setting: the value for `Nc1ncc(Br)cc1C(=O)c1cccc(N2CCC(N3CCCC3)CC2)n1` [compound 121] was 6.30 to 7.30. Still for that read-out and setting: the figure for `CC[C@H]1CN(c2ccc(C(F)(F)F)c(C(=O)c3cccnc3N)n2)C[C@H](C(C)C)N1` [compound 473] is 6.30 to 7.30; for `CC(C)C(O)C1CN(c2ccc(C(F)(F)F)c(C(=O)c3cccnc3N)n2)CCN1` (stereo not drawn) [compound 461] it is 6.30 to 7.30; for `CCC1CN(c2ccc(C(F)(F)F)c(C(=O)c3cccnc3N)n2)CCN1` (stereo not drawn) [compound 432] it is 6.30 to 7.30. On the same count and under the same terms, the figure for `CCCC1CN(c2ccc(C(F)(F)F)c(C(=O)c3cccnc3N)n2)CCCN1` (stereo not drawn) [compound 437] is 6.30 to 7.30.

A further test has as its target PKC alpha kinase (Homo sapiens, UniProt P17252). Kind of test: PKC Alpha (coupled enzyme assay). The class given is biochemical. The conditions noted are these: 130 μM ATP, 4.5 nM PKC alpha. As to the method:
An assay buffer solution was prepared which consisted of 100 mM HEPES (pH 7.5), 10 mM MgCl2, 25 mM NaCl, 0.1 mM EDTA, 100 μM CaCl2 and 0.01% Brij. […] To 16 μL of this enzyme buffer, in a 384 well plate, was added 1 μL of VRT stock solution in DMSO. The mixture was allowed to equilibrate for 10 mins at 30° C. […] Ki values were calculated from initial rate data by non-linear regression using the Prism software package (Prism 4.0a, Graphpad Software, San Diego, Calif.).
Take `Nc1ncccc1C(=O)c1nc(OCC(N)C2CCOCC2)ccc1C(F)(F)F` (stereo not drawn) [compound 433]: the pKi was below 5.55. Consider `CC(C)C[C@H]1CN(c2ccc(C(F)(F)F)c(C(=O)c3cccnc3N)n2)C[C@@H](C)N1` [compound 490], for which the pKi is above 7.30. On the same count and under the same terms, the value for `CC(N)(CNc1ccc(C(F)(F)F)c(C(=O)c2cccnc2N)n1)Cc1ccccc1` (stereo not drawn) [compound 452] was 5.55 to 6.30. Regarding `CC(C)C[C@H]1CN(c2ccc(C(F)(F)F)c(C(=O)c3cccnc3N)n2)C[C@H](C)N1` [compound 483], the pKi is 5.55 to 6.30. The same measure, in the same setting: the value for `C=Cc1cnc(N)c(C(=O)c2nc(N3CCN[C@@H](CC(C)C)C3)ccc2C(F)(F)F)c1` [compound 487] was above 7.30. In turn, `Nc1ncc(Cl)cc1C(=O)c1nc(N2CCNCC2)ccc1C(F)(F)F` [compound 495] gave a pKi above 7.30. The same measure, in the same setting: the value for `Cc1ccccc1C(=O)N1CCCN(c2cccc(C(=O)c3cccnc3N)n2)CC1` [compound 89] was 5.55 to 6.30; that for `CC[C@@H]1CN(c2ccc(C(F)(F)F)c(C(=O)c3cccnc3N)n2)C[C@H](CC(C)C)N1` [compound 488] was above 7.30; that for `CC(C)C[C@H]1CN(c2ccc(-c3ccccc3F)c(C(=O)c3cccnc3N)n2)CCN1` [compound 435] was above 7.30. Take `Nc1ncccc1C(=O)c1nc(N2CCNC(c3cccc(Cl)c3)C2)ccc1C(F)(F)F` (stereo not drawn) [compound 497]: the pKi is above 7.30. In turn, `CC[C@](CN)(CNc1ccc(C(F)(F)F)c(C(=O)c2cccnc2N)n1)c1ccccc1` [compound 463] had a pKi above 7.30.

For the compound `CCC[C@@H]1CN(c2ccc(C(F)(F)F)c(C(=O)c3cccnc3N)n2)C[C@H](CC(C)C)N1` [compound 494], the pKi is above 7.30.

In turn, `C=C(F)c1ccc(N2CCNC(c3cccc(Cl)c3)C2)nc1C(=O)c1cccnc1N` (stereo not drawn) [compound 476] had a pKi above 7.30. Same read-out and setting: the figure for `C=C(F)c1ccc(N2CCN[C@@H](CC(C)C)C2)nc1C(=O)c1cccnc1N` [compound 424] is above 7.30; for `C=C(F)c1ccc(N2CCNC(C(F)(F)F)C2)nc1C(=O)c1cccnc1N` (stereo not drawn) [compound 504] it is 5.55 to 6.30; for `C=C(F)c1ccc(N2CCN[C@@H](c3ccccc3)C2)nc1C(=O)c1cccnc1N` [compound 475] it is above 7.30. The same measure, in the same setting: the value for `NCC(CNc1ccc(C(F)(F)F)c(C(=O)c2cccnc2N)n1)c1ccccc1` (stereo not drawn) [compound 431] was above 7.30.

`C=C(F)c1ccc(N2CCNC(c3ccccc3)C2)nc1C(=O)c1cccnc1N` (stereo not drawn) [compound 457]: the pKi was above 7.30.
